According to patent publication US7682351B2, “Method for infusing insulin to a subject to improve impaired hepatic glucose processing” (priority 2003, dated 2010):
Entries after “also recorded” stand apart in the source; their conditions may differ.

What was measured:
Format in all cases: in vivo, human
[1] = tested on: diabetic patients with retinopathy; experiment: Case reports: diabetic retinopathy patients treated with the subject method; conditions: single patients with retinopathy; listed as subject method
Excerpt: (§1) The preferred embodiment of the method for delivering insulin pulses to a patient to improve impaired hepatic glucose processing is as follows. On the morning of the procedure, the patient is preferably seated in a blood drawing chair and a 23 gauge needle or catheter is preferably inserted into a hand or forearm vein to obtain vascular access. However, any system of such access may accomplish the needed result, including indwelling catheters, PICC lines and PORTACATHS. After a short equilibration period, the patient is asked to make a circulating glucose measurement prior to starting the actual infusion of insulin. A steady baseline circulating glucose level is achieved when two identical consecutive measurements taken 5 minutes apart is obtained. It is preferable that patients have circulating glucose levels close to 200 mg/dl prior to using the infusion method. In the case of pregnant diabetic women, however, every attempt is made to keep the maximum circulating glucose level to 150 mg/dl or less. […]
(§2) For all of the above listed examples, after the initial few days of treatment, the patients underwent treatment once a week, each treatment day consisting of three infusions of insulin accompanied by ingestion of carbohydrates. […] The patients' circulating glucose was measured once every thirty minutes by the finger stick method currently used by most diabetic patients. […]

[2] = tested on: patients suffering from senile dementia; experiment: Senile dementia in diabetic patients treated with the method (Hepatic Activation)
Excerpt: (§3) The preferred embodiment of the method for delivering insulin pulses to a patient to improve impaired hepatic glucose processing is as follows. On the morning of the procedure, the patient is preferably seated in a blood drawing chair and a 23 gauge needle or catheter is preferably inserted into a hand or forearm vein to obtain vascular access. However, any system of such access may accomplish the needed result, including indwelling catheters, PICC lines and PORTACATHS. After a short equilibration period, the patient is asked to make a circulating glucose measurement prior to starting the actual infusion of insulin. A steady baseline circulating glucose level is achieved when two identical consecutive measurements taken 5 minutes apart is obtained. It is preferable that patients have circulating glucose levels close to 200 mg/dl prior to using the infusion method. In the case of pregnant diabetic women, however, every attempt is made to keep the maximum circulating glucose level to 150 mg/dl or less.
After the circulating glucose measurement has been taken and the patient has the proper circulating glucose starting level, the patient is asked to consume a liquid or food containing glucose. The amount of glucose given to s diabetic patient ranges from 60 to 100 grams, but for small framed people the amount could be as low as 40 grams of glucose. […]

[3] = tested on: type 1 DM patients with nephropathy; experiment: 18-month multi-center controlled study of Chronic Intermittent Intravenous Insulin Therapy (CIIIT) on progression of diabetic nephropathy
Procedure: A study was conducted to assess the effects of Chronic Intermittent Intravenous Insulin Therapy (CIIIT) on the progression of diabetic nephropathy in patients with type 1 diabetes mellitus (DM). This 18-month multi-center, prospective, controlled study involved 49 type 1 DM patients with nephropathy who were following the Diabetes Control and Complications Trial (DCCT) intensive therapy (IT) regimen. Of these, 26 patients formed the control group C, which continued on IT, while 23 patients formed the treatment group (T) and underwent, in addition to IT, weekly CIIIT.
For all of the above listed examples, after the initial few days of treatment, the patients underwent treatment once a week, each treatment day consisting of three infusions of insulin accompanied by ingestion of carbohydrates. The infusion device used to infuse the insulin was the BIONICA MD-110 pump. Typically there were ten pulses given over a period of one hour, and a rest period of one hour was taken between infusions of insulin. The form in which the carbohydrates were ingested changed from time to time and included eating foods of high glycemic index including but not limited to bread and cake. The patients' circulating glucose was measured once every thirty minutes by the finger stick method currently used by most diabetic patients. […]

[4] = tested on: type 2 diabetic male with autonomic neuropathy; experiment: Case report: elevated blood pressure with autonomic neuropathy treated with the subject method; conditions: 200/120 before treatment despite intensive insulin therapy; 5 years of use
Excerpt: as §1, §2

[5] = tested on: diabetic patients with leg ulcers; experiment: Case reports: diabetes related leg ulcers treated with the subject method; conditions: ulcers not responding to any available therapy; listed as subject method
Excerpt: as §1, §2

[6] = tested on: diabetic patients with neuropathy; experiment: Case reports: diabetic neuropathy patients treated with the subject method
Excerpt: as §3
(§4) After the circulating glucose measurement has been taken and the patient has the proper circulating glucose starting level, the patient is asked to consume a liquid or food containing glucose. The amount of glucose given to s diabetic patient ranges from 60 to 100 grams, but for small framed people the amount could be as low as 40 grams of glucose. However, the amount of initial glucose given to the patient may vary. Liquid or food containing glucose is consumed by the patient to prevent the patient from becoming hypoglycemic. The preferred liquid or food is GLUCOLA, but any similar type of liquid or high glycemic food, including but not limited to cake and bread, containing glucose may be given to the patient. In a non-diabetic patient more glucose may be required than in the diabetic patient, but the other parameters would remain the same, including the need for a pulsed delivery of insulin.
Pulses of insulin are then administered intravenously at planned intervals of time, usually every six minutes. However other intervals may be used from as low as every three minutes up to every 30 minutes. For diabetic patients the amount of insulin in each pulse is 10-200 milliunits of insulin per kilogram of body weight; for non-diabetic patients the amount of insulin in each pulse is slightly lower. […]
as §2

[7] = tested on: type 2 diabetic patient with diabetes related kidney disease; experiment: Case report: diabetes related kidney disease (proteinuria) treated with the subject method; conditions: 1500 milligrams per 24-hour period before treatment, increasing 500 milligrams/24 hours/year; 5 years of use
Excerpt: as §1, §2

[8] = tested on: diabetic patients with heart disease; experiment: Case reports: diabetic heart disease patients treated with the subject method
Excerpt: as §3
as §4, with “In a non-diabetic patient more glucose may be required than in the diabetic patient, but the other parameters would remain the same, including the need for a pulsed delivery of insulin.” left out
as §2

[9] = type 1 person with severe neuropathy, Example 14

Question: Which results are given for insulin?
Answer: eyesight / retinal outcome after treatment [1]: eyesight improved to the point where night driving was no longer a concern; also recorded: the bleeding stopped, and there was no further deterioration of the retina; dementia symptoms after treatment ([2]; listed as Hepatic Activation): significant improvement in their motor skills, memory, and cognitive function; dementia symptoms after treatment ([2]; listed as present invention): clearly shown improvement in confusion, weakness, disorientation, cognitive function and lack of memory; effect on progression of diabetic nephropathy (conclusion) ([3]; CIIIT added to IT in type 1 DM patients with overt nephropathy): markedly reduce the progression of diabetic nephropathy; rate of creatinine clearance (CrCl) decline ([3]; T group (n=23): DCCT intensive therapy (IT) plus weekly CIIIT, 18 months, control group C on IT alone 7.69±1.88 ml/min/yr, P=0.0343): 2.21±1.62 ml/min/yr; blood pressure after treatment [4]: 120/80; leg ulcer outcome after treatment [5]: ulcers on their second leg healed; also recorded: ulcers healed and have never returned; neuropathic pain after treatment ([6]; single patients with polyneuropathy / painful peripheral neuropathy, weekly treatment, listed as subject method): pain has been reduced to the point where the person enjoys rigorous exercise; also recorded: no longer takes pain medication and has no twinges of pain in their legs; also recorded: pain had subsided to the point where they no longer used a wheelchair; gastroparesis after treatment [6, 9]: gastroparesis was reversed; numbness in legs after treatment [6, 9]: numbness in their legs has gone away; autonomic neuropathy symptoms after treatment (overall disease state) ([6]; type 1 person, bed-ridden with autonomic neuropathy before treatment, two years of use): reversed all of the diseases to the point where they have taken themself off disability; proteinuria after treatment [7]: 600-800 milligrams/24 hours; cardiac clinical outcome after treatment ([8]; single patients with diabetes related heart disease, listed as subject method): no longer required a heart transplant; also recorded: could withstand 4-vessel by-pass surgery; also recorded: condition improved to the point where the doctors performed two instead of one grafts; daily insulin intake after treatment ([8]; type 2 patient with dilated cardiomyopathy, 150 units a day before treatment): 24-26 units/day; ejection fraction after treatment ([8]; type 2 patient with severe dilated cardiomyopathy, 14-19% before treatment, 10 years of treatment): 29-32%
